Experimental data from article PMC8197275, “Novel Tdp1 Inhibitors Based on Adamantane Connected with Monoterpene Moieties via Heterocyclic Fragments” (Molecules, 2021).

Experiments:
[1] = biological target: Tdp1 (Homo sapiens, UniProt Q9NUW8); test: Tdp1 cleavage activity, fluorophore quencher-coupled DNA-biosensor, real-time; assay type: biochemical; set-up: inferred from the pET 16B vector and Ni-chelating resin purification; made in house; details: recombinant Tdp1 1.5 nM, 50 nM biosensor; read-out: IC50 (Tdp1 activity inhibition at 50%)
Sequence of Tdp1 (Q9NUW8 whole entry): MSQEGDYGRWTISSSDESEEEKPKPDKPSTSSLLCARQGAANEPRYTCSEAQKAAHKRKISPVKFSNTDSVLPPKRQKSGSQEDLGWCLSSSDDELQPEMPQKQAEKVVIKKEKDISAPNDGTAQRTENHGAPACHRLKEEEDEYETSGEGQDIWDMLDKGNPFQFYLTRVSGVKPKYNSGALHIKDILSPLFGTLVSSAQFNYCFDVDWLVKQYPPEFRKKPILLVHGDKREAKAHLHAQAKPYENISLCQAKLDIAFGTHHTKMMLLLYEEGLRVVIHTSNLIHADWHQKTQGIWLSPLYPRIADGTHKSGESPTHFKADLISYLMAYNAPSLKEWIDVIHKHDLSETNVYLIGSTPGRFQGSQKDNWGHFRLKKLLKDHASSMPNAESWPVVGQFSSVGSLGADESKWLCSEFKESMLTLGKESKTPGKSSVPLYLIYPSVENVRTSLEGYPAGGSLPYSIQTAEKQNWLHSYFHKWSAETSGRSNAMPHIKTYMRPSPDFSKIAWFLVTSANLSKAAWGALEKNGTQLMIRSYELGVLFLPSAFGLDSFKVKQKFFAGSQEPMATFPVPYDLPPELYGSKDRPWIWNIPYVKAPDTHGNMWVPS
Procedure: The recombinant Tdp1 was purified to homogeneity by chromatography on Ni-chelating resin and phosphocellulose P11 as described, using plasmid pET 16B-Tdp1, kindly provided by Dr. K.W. Caldecott (University of Sussex, United Kingdom). Tdp1 activity was detected as described in the work. Briefly, we measured the fluorescence intensity after quencher removal from a fluorophore quencher–coupled DNA oligonucleotide catalyzed by Tdp1. The reaction was carried out at different concentrations of inhibitors. The control samples contained 1% DMSO. The reaction mixtures contained Tdp1 buffer (50 mM Tris-HCl pH 8.0, 50 mM NaCl, and 7 mM β-mercaptoethanol), 50 nM biosensor, and an inhibitor being tested. The reaction was started by the addition of purified Tdp1 (1.5 nM). The biosensor (5′-[FAM] AAC GTC AGGGTC TTC C [BHQ]-3′) was synthesized in the Laboratory of Biomedical Chemistry at the Institute of Chemical Biology and Fundamental Medicine (Novosibirsk, Russia).
The reactions were incubated on a POLARstar OPTIMA fluorimeter (BMG LAB-TECH, GmbH) to measure fluorescence every 55 s (ex. 485 nm/em. 520 nm) during the linear phase (here, data are from minute 0 to minute 8). The values of IC50 were determined using a six-point concentration response curve in a minimum of three independent experiments, and were calculated using MARS Data Analysis 2.0 (BMG LABTECH).

[2] = system: HCT-116 cells; test: Sensitizing of HCT-116 cells to topotecan by Tdp1 inhibitors; assay type: cell-based, human; details: for HCT116 CC50 of topotecan with Tdp1 inhibitor: human, 72 h
Procedure: (§1) The potential for sensitizing the cancer cell lines to topotecan using the Tdp1 inhibitors was investigated using the MTT assay. Neutralizing the enzymatic activity of Tdp1 by blocking access to its catalytic site using a small molecule should sensitize the cytotoxic potential of topotecan, since the complex of Top1 with DNA cannot be unraveled. […] Nontoxic concentrations of the adamantane derivatives (5 μM) were used for the HeLa cell line; the dose response for topotecan was measured and the corresponding CC50 values were derived, and the results are shown in Figure 4 for 20c and in Table 2 for all the derivatives.
(§2) For HeLa cells, increased cytotoxicity was seen when the adamantanes and topotecan were combined. […] The combination index (CI) for different concentrations of topotecan and 20c at 5 μM was in the range 0.49–0.82, and at 10 μM of 20c, it was 0.23–0.78. This indicates a synergistic effect of topotecan and 20c. The CI values were calculated with the CompuSyn version 1.0 software. For the HCT-116 cells, the synergistic effects of the compounds were different than for the HeLa cells. […] The CI plot at a different fraction affected (Fa) was determined for topotecan (5, 15, 150, 500 and 1500 nM) and 20g (1, 3, 10, 20 μM). The CI values for most of the combinations correspond to a synergistic effect (CI < 1, see Figure S3 in the Supplementary Materials).
(§3) The human cervical cancer HeLa cells were grown in Iscove’s modified Dulbecco’s medium (IMDM) with 40 μg/mL gentamicin, 50 IU/mL penicillin, 50 μg/mL streptomycin (MP Biomedicals), and 10% of fetal bovine serum (Biolot) in a 5% CO2 atmosphere. Human colon adenocarcinoma HCT-116, rectum adenocarcinoma SW837, and human embryo kidney HEK293A cell lines were cultured in DMEM medium (Invitrogen) supplemented with 10% fetal bovine serum (FBS) (Invitrogen), penicillin (100 units/mL), and streptomycin (100 μg/mL), at 37 °C, 5% CO2 in a humid atmosphere. After the formation of a 30–50% monolayer, the tested compounds were added to the medium. The volume of the added reagents was 1/100 of the total volume of the culture medium, and the amount of DMSO was 1% of the final volume. Control cells were grown in the presence of 1% DMSO. The cell culture was monitored for 3 days.
(§4) The medium was removed, and the dark blue crystals of formazan were dissolved in 100 μL of isopropanol. The absorbance at 570 nm (peak) and 620 nm (baseline) was determined using a microplate reader Multiscan FC (Thermo Fisher Scientific Corporation). All concentrations were performed in triplicate. The values are given as mean ± standard deviation (S.D.) values, and all measurements were repeated three times.

[3] = system: HEK293A cells; test: Cytotoxicity on noncancerous cell line HEK293A (EZ4U); assay type: cell-based, human; details: concentrations up to 30 μM; data not shown
Procedure: (§5) The cytotoxicity of compounds was investigated using HeLa (cervical cancer), SW837 and HCT-116 (colon cancers) cell lines, and the results are shown in Table 1 and Figure S2 in the Supplementary Materials. […] In general, the HeLa cell line was less sensitive to the inhibitors than the HCT-116 and SW837 cells.
as §3
(§6) The cytotoxicity of the compounds to HeLa and HEK293A cell lines was examined using the EZ4U Cell Proliferation and Cytotoxicity Assay (Biomedica, Austria), according to the manufacturer’s protocols.

[4] = system: HeLa cells; test: Sensitizing of HeLa cells to topotecan by Tdp1 inhibitors; assay type: cell-based, human; details: for combination index (CI) with topotecan: HeLa, different concentrations of topotecan, CompuSyn; for HeLa CC50 of topotecan with Tdp1 inhibitor: human, 3 days, 5 µM
Procedure: as §1, §2, §3, §6

[5] = Cytotoxicity, MTT test, SW837; assay type: cell-based; details: human, SW837 cells; colorectal SW837, 72 h MTT
Procedure: as §5, §3, §4

[6] = Cytotoxicity, MTT test, HCT-116; assay type: cell-based; details: human, HCT-116 cells; colorectal HCT-116, 72 h MTT
Procedure: as §5, §3, §4

[7] = Cytotoxicity, EZ4U Cell Proliferation and Cytotoxicity Assay, HeLa; assay type: cell-based; details: human, HeLa cells, cervical cancer HeLa
Procedure: as §5, §3, §6

[8] = Solubility remark during biological testing; assay type: physicochemical; details: remark in words

| IC50 [1] [µM] | solubility [8] | melting point [°C] | Compound | HCT116 CC50 of topotecan with Tdp1 inhibitor ([2]; 15 µM) | effect on cell viability, HEK293A [3] | potentiation of the cytotoxic potency of topotecan [4] [×] | combination index (CI) with topotecan ([4]; inhibitor at 5 μM) | combination index (CI) with topotecan ([4]; inhibitor at 10 μM) | HeLa CC50 of topotecan with Tdp1 inhibitor [4] [µM] | CC50 at 72 h [5] [µM] | CC50 at 72 h [6] [µM] | CC50 at 3 days [7] [µM] | combination index (CI) with topotecan ([2]; HCT-116, topotecan 5-1500 nM, inhibitor 1, 3, 10, 20 μM, most of the combinations) | HCT116 CC50 of topotecan with Tdp1 inhibitor ([2]; 20 µM) |
| --- | --- | --- | --- | --- | --- | --- | --- | --- | --- | --- | --- | --- | --- | --- |
| 5.3 ± 1.7 | – | – | CC(C)=CCC/C(C)=C/CSc1n[nH]c(C23CC4CC(CC(C4)C2)C3)n1 [20c, 5-(Adamantan-1-yl)-3-(((E)-3,7-dimethylocta-2,6-dien-1-yl)thio)-1H-1,2,4-triazole] | 460.0 (15) nM | no effect on cell viability | 3 | 0.49–0.82 | 0.23–0.78 | 1.9 | 41 ± 6 | 16 ± 7 | 64 ± 6 | – | – |
| 0.57 ± 0.14 | – | – | CC1(C)[C@H]2CC=C(CCSc3n[nH]c(C45CC6CC(CC(C6)C4)C5)n3)[C@@H]1C2 [20g, 5-(Adamantan-1-yl)-3-((2-((1R,5S)-6,6-dimethylbicyclo[3.1.1]hept-2-en-2-yl)ethyl)thio)-1H-1,2,4-triazole] | – | no effect on cell viability | – | – | – | 2.6 | 40 ± 4 | 34 ± 6 | 74 ± 17 | < 1 | 235.8 (20) nM |
| 2.59 ± 0.48 | poor solubility | – | CC(C)=CCCC(C)CC(=O)Nc1nnc(C23CC4CC(CC(C4)C2)C3)s1 (centres unmarked) [25b, N-(5-(Adamantan-1-yl)-1,3,4-thiadiazol-2-yl)-3,7-dimethyloct-6-enamide] | – | – | – | – | – | 2.9 | 83 ± 8 | 66 ± 6 | > 100 | – | 611.9 (20) nM |
| – | poor solubility | 265.6 | C=C(C)[C@@H]1CC=C(C(=O)Nc2nnc(C34CC5CC(CC(C5)C3)C4)s2)CC1 [25d, (S)-N-(5-(adamantan-1-yl)-1,3,4-thiadiazol-2-yl)-4-(prop-1-en-2-yl)cyclohex-1-ene-1-carboxamide] | – | – | – | – | – | – | – | – | – | – | – |
| > 15 | – | 97.9 | CC(C)CCCC(C)CC(=O)NC12CC3CC(CC(C3)C1)C2 (centres unmarked) [26a, N-(Adamantan-1-yl)-3,7-dimethyloctanamide] | – | – | – | – | – | – | – | – | – | – | – |
